What was measured:
[1] = tested on: aryl hydrocarbon receptor (AhR); parameters: method as in PMID 33614386, PMID 18969555, PMID 18969548; settings: CALUX; relative to 2,3,7,8-TCDD; cited from earlier work
[2] = target: T1, aryl hydrocarbon receptor (AhR) (Rattus norvegicus, UniProt P41738); test: CALUX luciferase reporter bioassay, H4L7.5c2 rat hepatoma cells (20 DREs); format: cell-based
T1 construct: endogenous in cells; host or cells: H4L7.5c2, H4L1.1c4 and DR-CALUX (H4L1.1c10, H4IIe-based) recombinant rat hepatoma cells
T1 sequence (P41738 10-853): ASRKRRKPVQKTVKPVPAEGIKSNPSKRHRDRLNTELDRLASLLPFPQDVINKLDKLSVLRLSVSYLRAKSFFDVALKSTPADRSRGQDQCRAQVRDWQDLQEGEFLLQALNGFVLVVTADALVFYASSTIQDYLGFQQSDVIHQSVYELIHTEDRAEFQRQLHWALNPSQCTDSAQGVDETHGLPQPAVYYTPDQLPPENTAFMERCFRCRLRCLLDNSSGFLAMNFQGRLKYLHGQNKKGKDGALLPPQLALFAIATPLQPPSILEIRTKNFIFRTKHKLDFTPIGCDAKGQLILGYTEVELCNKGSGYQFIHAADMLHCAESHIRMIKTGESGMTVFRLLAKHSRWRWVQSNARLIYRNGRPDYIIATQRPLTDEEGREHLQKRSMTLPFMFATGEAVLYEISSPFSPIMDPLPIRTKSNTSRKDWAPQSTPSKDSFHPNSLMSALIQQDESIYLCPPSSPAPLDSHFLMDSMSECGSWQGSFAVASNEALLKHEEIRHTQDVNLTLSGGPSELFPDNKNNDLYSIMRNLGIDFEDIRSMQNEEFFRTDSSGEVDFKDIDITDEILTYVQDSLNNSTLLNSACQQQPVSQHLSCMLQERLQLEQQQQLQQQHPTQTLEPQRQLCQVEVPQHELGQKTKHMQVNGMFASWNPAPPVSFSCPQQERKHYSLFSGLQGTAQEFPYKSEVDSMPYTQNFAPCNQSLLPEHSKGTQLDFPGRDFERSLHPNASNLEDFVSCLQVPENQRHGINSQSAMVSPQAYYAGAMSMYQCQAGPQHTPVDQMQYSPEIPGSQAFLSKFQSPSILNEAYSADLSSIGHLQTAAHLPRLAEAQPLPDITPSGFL
Text: (§1) A “3rd generation” H4L7.5c2 recombinant rat hepatoma CALUX cell line that contains a stably transfected AhR-responsive firefly luciferase reporter gene under control of 20 dioxin responsive elements (DREs) was utilized in this study. […] H4L7.5c2 rat and other CALUX cell lines, such as H4L1.1c4 rat and […] mouse hepatoma cells (each with 4 DREs), or “3rd generation” H1L7.5c3 mouse hepatoma cells (20 DREs), are freely available for non-profit research purposes and can be obtained from Prof. Denison. These cells are also available for commercial and government screening purposes through a licensing agreement with the Hiyoshi Corporation, Omihachiman, Japan (www.calux-jp.com/english/).
Exposure of H4L7.5c2 rat cells to dioxins, dioxin-like compounds, and other AhR agonists results in induction of luciferase reporter gene expression in a time-, concentration-, AhR-, and chemical-specific manner. The AhR signal transduction pathway in the CALUX bioassay and the molecular mechanism of activation of gene expression by 2,3,7,8-TCDD and related AhR agonists have been described in detail elsewhere. The level of luciferase expression in CALUX cell lines is directly related to the overall concentration of added AhR activators.
H4L7.5c2 rat cells of defined sub-confluent density (60–70%) were harvested with trypsin and homogeneously suspended in cell culture medium (α-MEM) containing 10% (v/v) FBS. Cells were counted in a haemocytometer, then seeded in 96-well white clear bottom culture plates (Corning, New York, USA) at approximately 25,000 cells/well. After 1 h of pre-incubation at ambient conditions in a biosafety cabinet, the cells were grown for 20–24 h at 37 °C in the presence of 5% CO2.
Individual concentrations of a 2,3,7,8-TCDD-standard dilution series (generating assay concentrations of 0.0, 0.1, 0.3, 1.0, 3.0, 10, 30, 300, and 3000 pmol/L) and the sample extracts (both in DMSO) were first added to incubation medium and mixed, and the mixtures subsequently added in triplicate to 96-well plates containing H4L7.5c2 cells. The ability of the bioassay target compounds to adhere to the walls and bottom of the wells can lead to cells in individual wells of a triplicate being dosed with slightly different amounts of AhR-active compounds, leading to increased triplicate RSD values. Well-to-well variability of the cell response also further depends on edge effects commonly observed across 96-well microplates. For a given cell system, inhomogeneous dosing of triplicates and edge effects are some of the main drivers for the assay working range, within which triplicate RSD values are subject to defined limitations (RSD < 15%). Especially, its bottom end should be as low as possible for the present application. Each batch of plates was therefore pre-tested for satisfactorily low and reproducible edge effects. The latter was further reduced by a 1 h pre-incubation under ambient conditions in the safety cabinet immediately after seeding the cells, resulting in an even distribution of the cells in each well. The plates were then placed in an incubator on a 1.5 mm-thin copper sheet on top of the incubator shelf. Copper not only has bactericidal properties, but being a fast heat conductor, it also helps to avoid the formation of patterns in the measured cell response (another type of "edge effects"), caused by temperature gradients near heat-radiating walls or by occasional opening of the incubator door. For preparing the dose media, we applied a validated, fast, and reproducible pipetting procedure followed by thorough re-mixing immediately before dosing the cells only into the inner 60 wells of 96-well plates. Cell culture medium was added to the cells in the 36 outer wells to maintain a balanced atmosphere above all wells allowing homogeneous evaporation rates across the plate during incubation. […]

[3] = target: T1, aryl hydrocarbon receptor (AhR); test: DR-CALUX luciferase reporter bioassay, recombinant rat hepatoma (H4IIe)-based cells (4 DREs); format: cell-based; settings: DR-CALUX rat (4 DREs)
Text: (§2) We compared both key indicators of assay performance, calibrator bias and imprecision, and the resulting working range for H4L7.5c2 rat hepatoma cells (this study) with those obtained using various other cell lines (4 DREs: H4L1.1c4 rat, DR-CALUX rat, H1L6.1c2 mouse hepatoma cells; 20 DREs: H1L7.5c3 mouse hepatoma cells) previously evaluated (Table 2). Commercially available DR-CALUX cells, a recombinant rat hepatoma (H4IIe)-based cell line (H4L1.1c10), were obtained from BioDetection Systems (The Netherlands). When using CALUX cell lines that contain 4 DREs, the lower limit of working range (LLOW), or the concentration above which results may be reported, is typically close to 1 pmol/L if both RLU-based and concentration-based criteria for bias and imprecision are fulfilled (assay working range B in Table 2). […] When utilizing H1L7.5c3 mouse hepatoma cells, which also contain 20 DREs, the LLOW equals 0.3 pmol/L, as well. However, the range in which assay concentrations match all criteria for bias and imprecision is smaller with an upper limit of working range (ULOW) of just 10 pmol/L. It follows that the “3rd generation” H4L7.5c2 rat hepatoma cells provide the most suitable working range of the assay for low sample concentrations, regardless of whether only the current EU RLU-based imprecision requirements are met or whether bias-related and concentration-based criteria are additionally observed (Table 2).
(§3) While absolute induction is driven by the efficiency of gene expression, fold induction is the ratio between the cell response (RLU) induced by a calibration standard, or by AhR-active dioxin-like compounds present in a sample extract, and the unspecific assay background response (RLU). […] Furthermore, the Chi-square-to-degrees of freedom ratio (χ^2/DF, with χ^2 ~ WSSR) known to be a stand-alone index characterizing the quality of a model fit is provided for each cell line. […] The latter is the case for each cell line (Table 3). […] An explanation can be found in the fact that triplicate standard deviations were used as rough estimates.

[4] = target: T2, aryl hydrocarbon receptor (AhR) (Mus musculus, UniProt P30561); test: CALUX luciferase reporter bioassay, H1L6.1c2 mouse hepatoma cells (4 DREs); format: cell-based; settings: H1L6.1c2 mouse (4 DREs)
T2 sequence (P30561 10-848): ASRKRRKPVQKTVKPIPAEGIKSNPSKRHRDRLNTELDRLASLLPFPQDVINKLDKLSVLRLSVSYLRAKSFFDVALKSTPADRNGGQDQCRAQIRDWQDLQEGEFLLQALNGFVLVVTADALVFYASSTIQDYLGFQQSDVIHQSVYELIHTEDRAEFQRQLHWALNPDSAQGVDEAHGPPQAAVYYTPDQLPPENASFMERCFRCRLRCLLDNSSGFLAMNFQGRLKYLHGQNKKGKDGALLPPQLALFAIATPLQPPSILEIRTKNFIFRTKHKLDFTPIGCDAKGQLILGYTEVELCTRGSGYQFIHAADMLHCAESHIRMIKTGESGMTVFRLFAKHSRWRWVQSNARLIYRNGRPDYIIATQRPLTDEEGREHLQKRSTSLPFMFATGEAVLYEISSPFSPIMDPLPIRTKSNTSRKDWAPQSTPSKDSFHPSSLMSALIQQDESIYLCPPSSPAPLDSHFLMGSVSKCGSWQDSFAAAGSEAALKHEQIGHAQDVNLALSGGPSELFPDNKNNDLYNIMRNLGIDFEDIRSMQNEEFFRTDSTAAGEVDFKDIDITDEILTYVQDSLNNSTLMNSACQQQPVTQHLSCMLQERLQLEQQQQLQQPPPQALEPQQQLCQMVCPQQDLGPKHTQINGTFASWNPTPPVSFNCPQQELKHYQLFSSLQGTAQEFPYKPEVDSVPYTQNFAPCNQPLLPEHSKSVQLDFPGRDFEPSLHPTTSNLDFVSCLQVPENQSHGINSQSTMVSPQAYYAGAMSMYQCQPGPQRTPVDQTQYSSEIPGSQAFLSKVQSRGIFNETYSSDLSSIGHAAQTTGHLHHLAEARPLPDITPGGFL
T2 sequence (P53762 2-791 partner): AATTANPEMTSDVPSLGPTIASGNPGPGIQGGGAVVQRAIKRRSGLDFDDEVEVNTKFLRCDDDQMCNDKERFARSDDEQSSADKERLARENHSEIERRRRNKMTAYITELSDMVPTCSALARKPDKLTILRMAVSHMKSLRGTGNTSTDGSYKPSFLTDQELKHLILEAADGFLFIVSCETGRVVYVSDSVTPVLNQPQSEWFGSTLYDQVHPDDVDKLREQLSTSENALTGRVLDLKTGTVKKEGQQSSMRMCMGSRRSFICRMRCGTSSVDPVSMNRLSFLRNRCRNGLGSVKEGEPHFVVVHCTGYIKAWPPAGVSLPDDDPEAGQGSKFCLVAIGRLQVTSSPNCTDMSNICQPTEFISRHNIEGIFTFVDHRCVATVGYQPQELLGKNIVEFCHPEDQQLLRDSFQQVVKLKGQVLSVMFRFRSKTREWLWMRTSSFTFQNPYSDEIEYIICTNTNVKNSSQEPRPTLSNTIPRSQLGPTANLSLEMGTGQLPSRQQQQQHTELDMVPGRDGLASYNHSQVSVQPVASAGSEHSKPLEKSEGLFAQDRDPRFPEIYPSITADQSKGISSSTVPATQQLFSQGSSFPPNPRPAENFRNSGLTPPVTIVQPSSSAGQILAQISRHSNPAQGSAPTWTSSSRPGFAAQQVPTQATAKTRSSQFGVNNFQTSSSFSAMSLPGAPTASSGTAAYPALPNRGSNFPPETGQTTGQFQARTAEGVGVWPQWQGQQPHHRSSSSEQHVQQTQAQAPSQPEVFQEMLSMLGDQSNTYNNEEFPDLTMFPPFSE
Text: as §2, §3

[5] = parameters: method as in PMID 15083163; settings: adult humans; cited from earlier work
[6] = target: T2, aryl hydrocarbon receptor (AhR); test: CALUX luciferase reporter bioassay, H1L7.5c3 mouse hepatoma cells (20 DREs); format: cell-based; settings: H1L7.5c3 mouse (20 DREs)
Text: as §1, §2, §3

[7] = target: T1, aryl hydrocarbon receptor (AhR); test: CALUX luciferase reporter bioassay, H4L1.1c4 rat hepatoma cells (4 DREs); format: cell-based; settings: H4L1.1c4 rat (4 DREs)
Text: as §1, §2, §3

[8] = H4L7.5c2 rat (20 DREs), 5-PL fit by WSSR regression

Question: For `Clc1ccc(-c2cc(Cl)c(Cl)c(Cl)c2)cc1Cl` [PCB 126], which “Relative potency (REP) or response of the cell bioassay compared to the response to 2,3,7,8-TCDD” value [1] is on record?
Answer: Its value is “approximately 40%”.

Question: For `Clc1cc2c(cc1Cl)Oc1cc(Cl)c(Cl)cc1O2` [2,3,7,8-TCDD, 2,3,7,8-tetrachlorodibenzo-p-dioxin], which “Fold induction at 0.3 pmol/L” value ([2]; H4L7.5c2 rat (20 DREs), 0.3 pmol/L) is on record?
Answer: Its value is 1.46.

Question: What about the “Fold induction at 1.0 pmol/L” value ([2]; H4L7.5c2 rat (20 DREs), 1.0 pmol/L) of the same compound?
Answer: The value was 4.47.

Question: And the “Asymmetry factor (e)” value ([2]; H4L7.5c2 rat (20 DREs), 5-PL fit)?
Answer: Its value is 1.51.

Question: What about the EC50 [2, 8] of the same compound?
Answer: Its EC50 is 0.0114 nM.

Question: And the EC70 [2, 8]?
Answer: The EC70 was 0.0223 nM.

Question: And the “Inflection point (c)” value [2, 8]?
Answer: The value was 7.22 pmol/L.

Question: What about the Maximum fold induction [2, 8] of the same compound?
Answer: The Maximum fold induction was 136.

Question: And the “Slope (b)” value ([2]; H4L7.5c2 rat (20 DREs), Hill coefficient of 5-PL fit)?
Answer: Its value is 1.17.

Question: And the Maximum response ([2]; H4L7.5c2 rat hepatoma cells, corrected for the assay background response, 5-PL fit)?
Answer: Its Maximum response is 4730 RLUs.

Question: And the “Fold induction at 0.3 pmol/L” value ([3]; 0.3 pmol/L)?
Answer: Its value is 1.16.

Question: What about the “Fold induction at 1.0 pmol/L” value ([3]; 1.0 pmol/L) of the same compound?
Answer: The value was 1.53.

Question: And the “Asymmetry factor (e)” value ([3]; 5-PL fit)?
Answer: Its value is 0.63.

Question: What about the EC50 ([3]; 5-PL fit by WSSR regression) of the same compound?
Answer: Its EC50 is 0.00789 nM.

Question: And the EC70 ([3]; 5-PL fit by WSSR regression)?
Answer: Its EC70 is 0.014 nM.

Question: And the “Inflection point (c)” value ([3]; 5-PL fit by WSSR regression)?
Answer: Its value is 12.0 pmol/L.

Question: What about the Maximum fold induction ([3]; 5-PL fit by WSSR regression) of the same compound?
Answer: Its Maximum fold induction is 8.75.

Question: And the “Slope (b)” value ([3]; Hill coefficient of 5-PL fit)?
Answer: The value was 1.70.

Question: And the “Fold induction at 0.3 pmol/L” value ([4]; 0.3 pmol/L)?
Answer: Its value is 1.12.

Question: What about the “Fold induction at 1.0 pmol/L” value ([4]; 1.0 pmol/L) of the same compound?
Answer: Its value is 1.56.

Question: What about the “Asymmetry factor (e)” value ([4]; 5-PL fit) of the same compound?
Answer: The value was 1.42.

Question: What about the EC70 ([4]; 5-PL fit by WSSR regression) of the same compound?
Answer: Its EC70 is 0.0505 nM.

Question: What about the “Inflection point (c)” value ([4]; 5-PL fit by WSSR regression) of the same compound?
Answer: Its value is 15.0 pmol/L.

Question: What about the Maximum fold induction ([4]; 5-PL fit by WSSR regression) of the same compound?
Answer: The Maximum fold induction was 31.2.

Question: And the “Slope (b)” value ([4]; Hill coefficient of 5-PL fit)?
Answer: Its value is 1.03.

Question: What about the EC50 ([4]; H1L6.1c2 mouse hepatoma CALUX cells (4 DREs), 5-PL fit by WSSR regression) of the same compound?
Answer: Its EC50 is 0.0235 nM.

Question: What about the half-life [5] of the same compound?
Answer: The half-life was 3 to 10 years.

Question: And the “Fold induction at 0.3 pmol/L” value ([6]; 0.3 pmol/L)?
Answer: The value was 1.10.

Question: What about the “Fold induction at 1.0 pmol/L” value ([6]; 1.0 pmol/L) of the same compound?
Answer: Its value is 1.62.

Question: What about the “Asymmetry factor (e)” value ([6]; 5-PL fit) of the same compound?
Answer: Its value is 1.15.

Question: What about the EC70 ([6]; 5-PL fit by WSSR regression) of the same compound?
Answer: The EC70 was 0.00921 nM.

Question: What about the “Inflection point (c)” value ([6]; 5-PL fit by WSSR regression) of the same compound?
Answer: The value was 4.63 pmol/L.

Question: What about the Maximum fold induction ([6]; 5-PL fit by WSSR regression) of the same compound?
Answer: Its Maximum fold induction is 10.5.

Question: What about the “Slope (b)” value ([6]; Hill coefficient of 5-PL fit) of the same compound?
Answer: Its value is 1.48.

Question: What about the EC50 ([6]; H1L7.5c3 mouse hepatoma CALUX cells (20 DREs), 5-PL fit by WSSR regression) of the same compound?
Answer: Its EC50 is 0.00528 nM.

Question: What about the “Fold induction at 0.3 pmol/L” value ([7]; 0.3 pmol/L) of the same compound?
Answer: The value was 1.33.

Question: And the “Fold induction at 1.0 pmol/L” value ([7]; 1.0 pmol/L)?
Answer: Its value is 2.44.

Question: What about the “Asymmetry factor (e)” value ([7]; 5-PL fit) of the same compound?
Answer: The value was 1.81.

Question: And the EC50 ([7]; 5-PL fit by WSSR regression)?
Answer: Its EC50 is 0.00552 nM.

Question: And the EC70 ([7]; 5-PL fit by WSSR regression)?
Answer: Its EC70 is 0.0198 nM.

Question: What about the “Inflection point (c)” value ([7]; 5-PL fit by WSSR regression) of the same compound?
Answer: The value was 3.67 pmol/L.

Question: What about the Maximum fold induction ([7]; 5-PL fit by WSSR regression) of the same compound?
Answer: Its Maximum fold induction is 20.6.

Question: What about the “Slope (b)” value ([7]; Hill coefficient of 5-PL fit) of the same compound?
Answer: The value was 0.90.

Source: paper PMC7973644, “Bioanalytical screening of low levels of dioxins and dioxin-like PCBs in pig meat (pork) for checking compliance with EU maximum and action levels using highly sensitive “third generation” recombinant H4L7.5c2 rat hepatoma cells” (Environmental Sciences Europe, 2021)
